Data from ChEMBL document CHEMBL1201862, “PubChem BioAssay data set” (2004).
The source made the active and inactive calls. Cut-off read from the data, not from the text of the source: actives have a measured IC50 and inactives only a lower limit.

What was measured:
Type in all cases: functional
[1] = target: T1, Caspase-3 (Homo sapiens, UniProt P42574);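 note: Dose-response selectivity test against caspase-3 for candidate inhibitors of sentrin-specific proteases (SENPs)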
T1 sequence (P42574 whole entry): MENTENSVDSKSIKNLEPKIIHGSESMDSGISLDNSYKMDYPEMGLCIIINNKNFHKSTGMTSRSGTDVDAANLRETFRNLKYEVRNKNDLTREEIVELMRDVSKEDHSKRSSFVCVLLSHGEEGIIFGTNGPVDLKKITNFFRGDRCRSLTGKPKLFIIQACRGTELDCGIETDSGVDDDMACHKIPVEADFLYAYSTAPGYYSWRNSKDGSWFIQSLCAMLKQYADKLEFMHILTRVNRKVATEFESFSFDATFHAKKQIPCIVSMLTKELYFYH

[2] = target: T2, Apoptotic protease-activating factor 1 (Homo sapiens, UniProt O14727)
T2 sequence (O14727 whole entry): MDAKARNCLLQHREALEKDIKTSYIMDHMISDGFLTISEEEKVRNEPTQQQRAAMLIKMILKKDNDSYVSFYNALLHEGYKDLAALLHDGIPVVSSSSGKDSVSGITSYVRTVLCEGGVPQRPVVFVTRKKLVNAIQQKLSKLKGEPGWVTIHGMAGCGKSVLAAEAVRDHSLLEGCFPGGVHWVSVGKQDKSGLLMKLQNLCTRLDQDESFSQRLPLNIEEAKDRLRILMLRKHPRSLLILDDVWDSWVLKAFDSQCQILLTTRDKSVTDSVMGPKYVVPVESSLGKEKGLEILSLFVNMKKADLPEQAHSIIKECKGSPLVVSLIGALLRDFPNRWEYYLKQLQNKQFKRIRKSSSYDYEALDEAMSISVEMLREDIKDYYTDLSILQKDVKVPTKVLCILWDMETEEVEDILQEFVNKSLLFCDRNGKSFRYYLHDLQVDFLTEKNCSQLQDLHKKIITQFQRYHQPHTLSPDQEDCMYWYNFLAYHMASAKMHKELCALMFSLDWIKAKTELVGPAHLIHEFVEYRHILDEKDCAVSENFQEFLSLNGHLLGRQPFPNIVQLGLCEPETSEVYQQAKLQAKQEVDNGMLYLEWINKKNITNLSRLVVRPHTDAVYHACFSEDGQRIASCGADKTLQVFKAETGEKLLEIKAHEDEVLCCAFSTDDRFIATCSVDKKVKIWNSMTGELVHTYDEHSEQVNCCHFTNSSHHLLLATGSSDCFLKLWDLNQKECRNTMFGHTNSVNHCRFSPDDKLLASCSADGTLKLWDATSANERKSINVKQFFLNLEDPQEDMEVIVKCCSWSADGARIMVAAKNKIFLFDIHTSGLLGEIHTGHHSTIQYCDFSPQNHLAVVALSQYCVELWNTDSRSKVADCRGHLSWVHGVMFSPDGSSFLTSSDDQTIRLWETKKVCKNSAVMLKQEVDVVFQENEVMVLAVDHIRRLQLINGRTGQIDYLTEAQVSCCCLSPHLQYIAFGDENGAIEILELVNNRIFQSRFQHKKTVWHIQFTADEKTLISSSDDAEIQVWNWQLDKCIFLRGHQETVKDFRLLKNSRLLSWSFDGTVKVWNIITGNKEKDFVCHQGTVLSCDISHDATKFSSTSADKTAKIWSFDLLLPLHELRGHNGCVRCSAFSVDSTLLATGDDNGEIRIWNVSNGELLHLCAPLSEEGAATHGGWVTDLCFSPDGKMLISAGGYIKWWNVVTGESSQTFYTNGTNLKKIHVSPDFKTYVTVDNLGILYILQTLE

[3] = target: T3, Sentrin-specific protease 7 (Homo sapiens, UniProt Q9BQF6);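 note: Luminescence-based dose-response confirmation of ultra-high-throughput screening hits, measuring inhibition of SENP7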
T3 sequence (Q9BQF6 whole entry): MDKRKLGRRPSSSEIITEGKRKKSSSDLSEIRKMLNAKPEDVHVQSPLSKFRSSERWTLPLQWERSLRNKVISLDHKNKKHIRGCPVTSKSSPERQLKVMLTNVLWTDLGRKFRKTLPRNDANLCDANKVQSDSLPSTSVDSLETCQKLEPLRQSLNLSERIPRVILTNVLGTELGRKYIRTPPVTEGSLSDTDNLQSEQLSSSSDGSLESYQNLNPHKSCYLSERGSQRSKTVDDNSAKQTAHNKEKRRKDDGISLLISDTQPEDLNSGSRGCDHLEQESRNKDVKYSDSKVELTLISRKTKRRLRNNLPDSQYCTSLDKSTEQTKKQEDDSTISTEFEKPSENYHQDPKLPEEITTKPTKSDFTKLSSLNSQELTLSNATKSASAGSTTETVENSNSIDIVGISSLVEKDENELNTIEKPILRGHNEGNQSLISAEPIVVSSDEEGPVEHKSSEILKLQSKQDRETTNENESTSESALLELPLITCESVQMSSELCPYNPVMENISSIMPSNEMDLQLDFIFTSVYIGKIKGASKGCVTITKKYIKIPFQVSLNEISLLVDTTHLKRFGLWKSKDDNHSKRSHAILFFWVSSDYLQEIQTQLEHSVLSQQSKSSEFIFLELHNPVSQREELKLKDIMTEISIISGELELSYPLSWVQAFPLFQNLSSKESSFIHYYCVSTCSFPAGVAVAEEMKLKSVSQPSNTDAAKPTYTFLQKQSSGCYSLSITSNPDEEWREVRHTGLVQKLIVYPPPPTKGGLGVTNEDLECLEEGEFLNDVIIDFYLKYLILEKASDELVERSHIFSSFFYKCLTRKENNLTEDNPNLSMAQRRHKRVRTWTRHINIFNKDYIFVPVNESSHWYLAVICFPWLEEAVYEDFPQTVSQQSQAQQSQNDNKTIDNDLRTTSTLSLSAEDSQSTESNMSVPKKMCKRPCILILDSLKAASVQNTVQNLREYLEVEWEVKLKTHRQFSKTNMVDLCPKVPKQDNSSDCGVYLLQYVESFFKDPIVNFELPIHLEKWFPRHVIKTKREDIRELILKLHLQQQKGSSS

| Compound | IC50 [1] | IC50 [2] | IC50 [3] |
| --- | --- | --- | --- |
| Oc1ccc(/C=N/Nc2cc(N3CCCC3)nc(N3CCCC3)n2)cc1 | > 100 µM (inactive) | 0.707 µM (active) | 31 µM (active) |
| COc1ccc(S(=O)(=O)/N=C2\C=C(Nc3ccc(O)cc3)C(=O)c3ccccc32)cc1 |  | 0.441 µM (active) |  |
| COc1ccc(/C=N/Nc2cc(N3CCCC3)nc(N3CCCC3)n2)cc1 | > 100 µM (inactive) | 2.63 µM (active) | 5.23 µM (active) |
